In ChEMBL document CHEMBL4138164, “Thieno[2,3-b]pyridine derivatives are potent anti-platelet drugs, inhibiting platelet activation, aggregation and showing synergy with aspirin” (Eur J Med Chem, 2018):
Calls of active or inactive are those of the source. The rule behind the calls is not given here.

Columns and labels:
[1] = biological target: P2Y purinoceptor 12 (Homo sapiens) (UniProt Q9H244); test: Antagonist activity at P2Y12 in human platelet rich plasma assessed as inhibition of ADP-induced CD62P expression at 10 uM pretreated for 30 mins followed by ADP addition measured after 5 mins by flow cytometric analysis; assay type: functional
P2Y purinoceptor 12 (Homo sapiens), sequence (Q9H244 whole entry): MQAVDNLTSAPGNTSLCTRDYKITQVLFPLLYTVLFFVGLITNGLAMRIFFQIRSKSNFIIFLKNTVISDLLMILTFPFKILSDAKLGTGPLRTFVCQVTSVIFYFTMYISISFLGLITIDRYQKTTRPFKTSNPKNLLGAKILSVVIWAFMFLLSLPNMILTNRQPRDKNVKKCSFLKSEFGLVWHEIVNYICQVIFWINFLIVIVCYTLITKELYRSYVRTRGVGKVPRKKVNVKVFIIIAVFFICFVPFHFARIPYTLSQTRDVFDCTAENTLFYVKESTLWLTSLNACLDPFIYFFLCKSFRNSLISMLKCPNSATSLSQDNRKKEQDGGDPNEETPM

[2] = biological target: P2Y purinoceptor 12 (Homo sapiens) (UniProt Q9H244); test: Antagonist activity at P2Y12 in human platelet rich plasma assessed as inhibition of collagen-induced platelet aggregation at 10 uM pretreated for 30 mins followed by collagen addition measured after 5 mins by light transmission aggregometric analysis; assay type: functional
[3] = biological target: P2Y purinoceptor 12 (Homo sapiens) (UniProt Q9H244); test: Antagonist activity at P2Y12 in human platelet rich plasma assessed as inhibition of ADP-induced platelet aggregation at 10 uM pretreated for 30 mins followed by ADP addition measured after 5 mins by light transmission aggregometric analysis; assay type: functional
[4] = biological target: P2Y purinoceptor 12 (Homo sapiens) (UniProt Q9H244); test: Synergistic inhibition of P2Y12 in human platelet rich plasma assessed as inhibition of ADP-induced platelet aggregation at 10 uM pretreated for 30 mins followed by ADP addition measured after 5 mins in presence of aspirin by light transmission aggregometric analysis; assay type: functional
Platelet = test: Cytotoxicity against platelet in human platelet rich plasma at 100 uM after 48 to 72 hrs; assay type: cell-based
[5] = biological target: P2Y purinoceptor 12 (Homo sapiens) (UniProt Q9H244); test: Antagonist activity at P2Y12 in human platelet rich plasma assessed as inhibition of ADP-induced PAC1 expression at 10 uM pretreated for 30 mins followed by ADP addition measured after 5 mins by flow cytometric analysis; assay type: functional
[6] = biological target: P2Y purinoceptor 12 (Homo sapiens) (UniProt Q9H244); test: Antagonist activity at P2Y12 in human whole blood assessed as inhibition of ADP-induced platelet-aggregation at 10 uM pretreated for 30 mins followed by ADP addition measured after 5 mins by FITC staining-based flow cytometric analysis; assay type: functional

Row | Structure (SMILES) | inhibition [1] | inhibition [2] | inhibition [3] | inhibition [4] | inhibition [5] | inhibition [6] | Activity (Platelet)
1 | Nc1c(C(=O)Nc2cccc(Cl)c2)sc2nc3c(cc12)C(=O)CCC3 | Active | Active | Active | Active | Active | Active | Non-Toxic
2 | Nc1c(C(=O)Nc2ccccc2Cl)sc2nc3c(cc12)C(=O)CCC3 | Active | Active | Active | Active | Active | Active | Non-Toxic
3 | COC(=O)[C@H](c1ccccc1Cl)N1CCc2sccc2C1 | – | inactive | Active | – | – | Active | –
4 | CC(=O)Oc1ccccc1C(=O)O | – | – | Active | – | – | – | –

More lines, main results first:

Row | inhibition [1] | inhibition [2] | inhibition [3] | inhibition [4] | inhibition [5] | inhibition [6] | Structure (SMILES) | Activity (Platelet)
5 | Active | Active | Active | Active | Active | Active | Nc1c(C(=O)Nc2ccccc2)sc2nc3c(cc12)CCCCCC3 | Non-Toxic
6 | Active | Active | Active | inactive | Active | Active | COc1ccc(NC(=O)c2sc3nc4c(cc3c2N)CCCCCC4)cc1 | Non-Toxic
7 | Active | Active | Active | Active | Active | Active | Cc1c(Cl)cccc1NC(=O)c1sc2nc3c(cc2c1N)CCCCC3 | Non-Toxic
8 | Active | Active | Active | inactive | Active | Active | Cc1c(Br)cccc1NC(=O)c1sc2nc3c(cc2c1N)CCCCCC3 | Non-Toxic
